According to patent publication US20260217863A1, “ANTIBODY OR PEPTIDE BINDING SPECIFICALLY TO RNASE A, IMMUNOASSAY DEVICE AND METHOD FOR DETECTING RNASE A, AND METHOD FOR COLLECTING RNASE A” (UIF (University Industry Foundation), Yonsei University, priority 2022, published 2026):
pIC50: −log10 of the molar value. Where no end group is shown, it is not given here.

Molecular target: T1, RNase A (Bos taurus, UniProt P61823)
T1 sequence (P61823 27-150): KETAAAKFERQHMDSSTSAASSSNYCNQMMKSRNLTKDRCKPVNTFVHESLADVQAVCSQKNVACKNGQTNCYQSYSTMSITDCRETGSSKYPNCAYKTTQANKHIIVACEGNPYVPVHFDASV
Assay: RNA cleavage assay with total RNA from HeLa cells, agarose gel imaging
Assay type: biochemical, bovine
Design: Ribonuclease A (Type II-A) from bovine pancreas; purchased Sigma-Aldrich Korea; host or cells: bovine pancreas
Conditions: RNase 0.7 μg/ml, agarose gel image analysis, read-out: IC50 for RNase A activity inhibition
Procedure: The analysis of RNase inhibitory activity of Fv antibodies and synthetic peptides was performed using RNA samples extracted from HeLa cells as follows: (1) Mixing the RNA sample extracted from HeLa cells (600 ng) with 87.5 nM-5.6 μM under conditions of 37° C. for 30 minutes, (2) Electrophoresis on a 1% agarose gel at 90 V for 40 minutes. The estimation of RNase inhibitory activity was carried out by gel imaging of the cleaved RNA using a ChemiDoc XPS (Bio-Rad, CA, USA).
(§1) Using RNA samples extracted from HeLa cells, the RNase inhibitory activity of the synthesized peptides was estimated. The RNase inhibitory activity was assessed using agarose gel imaging of the cleaved RNA. To optimize the RNase concentration for the RNase inhibition assay, total RNA was treated with RNase A (600 ng), with RNase A concentrations ranging from 5.7 ng/ml to 3.6 μg/ml, and the cleaved RNA bands were observed after treatment with ETBR (ethidium bromide). […] The RNase concentration for inhibition analysis was determined to be 0.7 μg/ml, with RNase concentrations above 3.6 μg/ml. The inhibition analysis was performed by mixing total RNA from HeLa cells with RNase (0.7 μg/ml) and Fv-antibody at a concentration of 10 μM, resulting in the observation that the entire RNA was completely cleaved into small RNA bands in the absence of the Fv-antibody. […] The optimal concentration of the Fv-antibody for RNase inhibition was determined by the cleavage reaction with total RNA in the concentration range of 87.5 nM to 5.6 μM for Fv-antibodies (Fv-1, Fv-2, Fv-3).
The analysis of RNase inhibitory activity of Fv antibodies and synthetic peptides was performed using RNA samples extracted from HeLa cells as follows: (1) A mixture of RNA samples extracted from HeLa cells (600 ng) was prepared at concentrations of 87.5 nM-5.6 μM and incubated at 37° C. for 30 minutes; (2) Electrophoresis was conducted in a 1% agarose gel under 90 V for 40 minutes. The estimation of RNase inhibitory activity was carried out by gel imaging of the cleaved RNA using a ChemiDoc XPS (Bio-Rad, CA, USA).
as §1, with “the” for “the concentration”

Sequence | pIC50
CGPDSDVMTDF [Peptide-1] | 6.00
DGTAKKSRKDD [Peptide-3] | 6.33
YGPVGRVKRDD [Peptide-2] | 6.18
